Source: article PMC8588536, “Iridal-Type Triterpenoids Displaying Human Neutrophil Elastase Inhibition and Anti-Inflammatory Effects from Belamcanda chinensis” (Molecules, 2021)

How the values were obtained:
[1] = target: T1, Human neutrophil elastase (HNE, EC 3.4.21.37) (Homo sapiens, UniProt P08246); experiment: Human neutrophil elastase inhibition, spectrophotometric, MeOSuc-AAPV-pNA substrate; assay type: biochemical
T1 construct: purchased Sigma-Aldrich
T1 sequence (P08246 30-267): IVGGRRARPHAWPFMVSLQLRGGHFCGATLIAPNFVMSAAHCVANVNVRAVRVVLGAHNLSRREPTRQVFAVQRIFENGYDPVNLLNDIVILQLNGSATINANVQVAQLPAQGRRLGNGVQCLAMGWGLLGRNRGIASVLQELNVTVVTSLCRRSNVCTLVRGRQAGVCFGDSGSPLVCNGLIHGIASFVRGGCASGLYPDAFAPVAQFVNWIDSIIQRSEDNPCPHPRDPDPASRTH
Experimental: Human neutrophil elastase (EC 3. 4. 21. 37) (Sigma-Aldrich, St. Louis, MO, USA) activity was measured in accordance with the previous description with subtle modification, by observing the formation of p-nitroaniline after the hydrolysis of N-methoxysuccinyl-Ala-Ala-Pro-Val-p-nitro anilide at 405 nm. The inhibitors were dissolved in dimethyl sulfoxide (DMSO) and diluted to a few concentrations. In brief, in a 96-well plate, 10 µL of inhibitor solution and 40 µL of 1.5 mM of MeOSuc-AAPV-pNA were added as a substrate in the 0.02 mM Tris-HCl buffer solutions (pH 8.0). Then, 20 µL of human neutrophil elastase (0.2 unit/mL) was added to the mixture. The test mixtures were incubated and mixed for 15 min at room temperature and then screened at 405 nm for 30 min every 30 s.
Activity (%) = 100 [1/(1 + ([I]/IC50))].(1)
The modalities of HNE inhibition were estimated in experiments using particular concentrations of the substrates and inhibitors, respectively. The Michaelis–Menten constant (Km) and maximal velocity (Vmax) were investigated by a Lineweaver–Burk plot. The KI, dissociation constants for inhibitor binding to the free enzyme were calculated using a Dixon plot. Equations (2)–(4) are representatives for deriving the aforementioned parameters. (2) 1/V=Km/Vmax(1+[I]/Ki)×1/S+1/Vmax (3) Slop=Km/KiVmax[I]+Km/Vmax (4) Intercept=1/KiVmax[I]+1/Vmax.

[2] = target: T2, Human neutrophil elastase (HNE) (Homo sapiens, UniProt P08246); experiment: Fluorescence quenching binding affinity to HNE; details: inhibitor 7.8–31.2 µM
T2 construct: purchased Sigma-Aldrich
T2 sequence (P08246 30-267): T1 sequence (P08246 30-267)
Experimental: To measure fluorescence from the HNE enzyme, 10 μL of 0.01 unit/mL enzyme solution with 180 μL of Tris-HCl buffer (0.02 mM) was accurately added into the 96-well black immunoplates. Then, 10 μL of incremental concentrations (7.8–31.2 μΜ) of inhibitors were added into each well. All fluorescence spectra were measured from 280 to 400 nm with emission slits regulated to 2.0 nm, and the excitation wavelength was 260 nm. The Stern–Volmer quenching constant (KSV) was calculated using Equation (5). All experiments were conducted in triplicate, and the mean values were calculated. (5) […]=1+KSV[Q], where F0 and F are the fluorescence intensities in the absence and presence of quencher (Q). KSV is the Stern–Volmer quenching constant [LM^−1]. For static quenching, the correlation between the fluorescence intensity and the concentration of quencher for the series of reactions can be estimated by Equation (6). (6) log[(F0−F)/F]=logKA+nlog[Q]f.
F0 and F are the fluorescence intensities in the absence and presence of inhibitor; KA is the binding constant; n is the number of binding sites of the enzyme; Qf is the concentration of inhibitor.

[3] = system: NF-κB p65 in LPS-stimulated RAW264.7 cells; experiment: NF-κB nuclear translocation, immunocytochemistry; assay type: cell-based, mouse; details: pre-treatment 2 h prior to LPS 1 µg/mL for 16 h
Experimental: RAW264.7 cells cultured on round cover slips coated with poly-L-lysine were treated with triterpenoids (1 or 3 µg/mL) 2 h prior to LPS treatment, followed by LPS (1 µg/mL) for 16 h. The cells were washed with 1 x phosphate buffered saline (PBS) and fixed with 4% paraformaldehyde for 30 min. After washing the fixed cells with PBS, the cells were permeabilized with a blocking buffer (1% normal goat serum and 0.2% Triton X-100 in PBS) for 30 min at room temperature, and were incubated with an anti-NF-κB p65 antibody (1:200 dilution, Cell Signaling Technology, Danvers, MA, USA) at 4 °C overnight. After three washes in PBS, the cells were incubated in the dark for 1 h with the mixture of FITC-conjugated anti-rabbit IgG fluorescent secondary antibody diluted at 1:500 in PBS. Finally, the cells were stained with 2 µg/mL Hoechst for nuclei staining. The cells were washed with PBS, wet-mounted on glass slides, and observed using a confocal laser-scanning microscope (Olympus, Tokyo, Japan). The negative control (NC) was analyzed by omitting the primary antibody.

Structure (SMILES) | Ki ([1]; Dixon plots, read-out: Ki (inhibition constant)) | Type of Inhibition ([1]; Lineweaver-Burk and Dixon plots, reversibility from activity vs enzyme concentration plots) | fold better HNE inhibition than monocyclic compounds (1 and 2) ([1]; compared with compounds 1 and 2) | IC50 ([1]; concentration that caused 50% enzyme activity loss, three sets of experiments) | n (number of binding sites of the enzyme) [2] | Kd ([2]; read-out: KA (association constant of the complex of enzyme and quencher) (converted)) | KSV (Stern-Volmer quenching constant) ([2]; λEx 260 nm, λEm 280–400 nm) | NF-κB translocation to the nucleus (immunocytochemical staining) [3]
COC1OC(C=C(C)C=CC=C(C)CCC=C(C)C)CC12C(CCCO)C(=C(C)C=O)CCC2(C)O (centres unmarked) [Compound 3, iridobelamal B] | 6.2 µM | noncompetitive inhibitor | 2–3 fold | 6.8 ± 0.3 µM | 0.9727 | 13.5 µM | 67640 L/mol | 
CC(C)(C)c1ccc(S(=O)(=O)/C=C/C#N)cc1 [Bay 11-7085, reference compound] |  |  |  |  |  |  |  | suppressed
